Values quoted from earlier work, collected in PMC4104431 (Nuclear medicine and biology, 2014).

Legend:
CXCR4 = CXCR4 (Homo sapiens, UniProt P61073)
Chain of CXCR4 (P61073 whole entry): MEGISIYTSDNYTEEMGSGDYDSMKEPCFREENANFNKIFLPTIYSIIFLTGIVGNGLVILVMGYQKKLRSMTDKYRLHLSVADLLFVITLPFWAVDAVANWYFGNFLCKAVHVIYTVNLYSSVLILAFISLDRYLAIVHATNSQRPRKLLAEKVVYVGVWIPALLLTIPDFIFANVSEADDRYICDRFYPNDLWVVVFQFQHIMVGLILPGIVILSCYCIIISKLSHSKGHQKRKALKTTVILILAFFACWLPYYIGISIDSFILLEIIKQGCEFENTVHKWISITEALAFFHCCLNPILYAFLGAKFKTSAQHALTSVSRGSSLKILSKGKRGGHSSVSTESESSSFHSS

| Metabolic stability | Fold increase in affinity for CXCR4 when bound to Cu(II) (CXCR4) [fold] | SMILES |
| --- | --- | --- |
| metabolically stable | 7 | c1cc(CN2CCCNCCNCCCNCC2)ccc1CN1CCCNCCNCCCNCC1 [AMD3100] |
| metabolically stable | – | c1ccc(CNCc2ccc(CN3CCCNCCNCCCNCC3)cc2)nc1 [AMD3465] |
